The subject of series [1] is mouse. The settings on record: Carcinogenicity, b6c3f1, Oral, Gavage/Intubation, dose end: 91 week, group: systemic.
Series [2] concerns rat. The settings on record: Carcinogenicity; other; Oral; Feed; dose end: 78 week; group: systemic; systemic / in life observation / clinical signs / abdominogenital staining + systemic / in life observation / clinical signs / fur (altered ….
For series [3], the system named is rat. The settings on record: Carcinogenicity, fischer, Oral, Gavage/Intubation, dose end: 2 year, group: systemic.
Series [4] concerns rat. The settings on record: Subchronic oral toxicity in rodents, fischer, Gavage/Intubation, dose end: 16 week.
Series [5] deals with mouse. The settings on record: Subchronic oral toxicity in rodents, b6c3f1, Gavage/Intubation, dose end: 16 week, group: systemic.
Series [6] concerns mouse. The settings on record: Carcinogenicity, b6c3f1, Oral, Gavage/Intubation, dose end: 2 year, group: systemic.
Series [7] has as its system rat. The settings on record: Subchronic oral toxicity in rodents, fischer, Water, dose end: 13 week.
Another series concerns guinea-pig. The settings on record: Subchronic dermal toxicity, hartley, Topical, dose end: 13 week, group: systemic, systemic / clinical chemistry / creatine phosphokinase / creatine phosphokinase + systemic / clinical chemistry / lactic acid dehydrogenase….
The subject of series [8] is rat. The settings on record: Prenatal developmental toxicity study, sprague dawley, Inhalation, Whole-Body, dose end: 15 GD.
Series [9] deals with rat. The settings on record: Developmental neurotoxicity study, sprague dawley, Oral, Feed, dose end: 63 PND, group: cannot be grouped.
In series [10] the test system is mouse. The settings on record: Subchronic oral toxicity in rodents, b6c3f1, Water, dose end: 13 week.
The test system of series [11] is rat. The settings on record: Multigenerational reproductive toxicity study; sprague dawley; Oral; Water; dose end: 1 generation; group: reproductive; reproductive / offspring survival early / litter size / litter size + reproductive / offspring survival early / live fetuses / live fetuses.
The subject of series [12] is mouse. The settings on record: Subchronic oral toxicity in rodents, b6c3f1, Feed, dose end: 13 week, group: systemic.
Series [13] has as its system mouse. The settings on record: Carcinogenicity, b6c3f1, Oral, Feed, dose end: 103 week, group: systemic.
Series [14] relates to rat. The settings on record: Subchronic oral toxicity in rodents, fischer, Feed, dose end: 13 week, group: systemic.
Series [15] has as its system rat. The settings on record: Carcinogenicity, fischer, Oral, Feed, dose end: 103 week, group: systemic.
The test system of series [16] is mouse. The settings on record: Carcinogenicity; b6c3f1; Oral; Feed; dose end: 104 week; group: systemic; systemic / pathology microscopic / spleen / hematopoietic cell proliferation + systemic / pathology microscopic / stomach / hyperkeratosis.
The test system of series [17] is rat. The settings on record: Combined chronic toxicity/carcinogenicity; wistar; Oral; Feed; dose end: 2 year; group: systemic; systemic / in life observation / clinical signs / aggressive behavior + systemic / in life observation / clinical signs / excitation + ….
The next series has as its system dog. The settings on record: Chronic toxicity; beagle; Oral; Capsule; dose end: 104 PND; group: systemic; systemic / in life observation / clinical signs / [other].
Where [18] appears, read: systemic / pathology microscopic / adrenal gland / pheochromocytoma nos + systemic / pathology microscopic / liver / carcinoma + systemic / ….
Where [19] appears, read: systemic / pathology microscopic / liver / carcinoma + systemic / in life observation / mortality / mortality + systemic / in life ….
Where [20] appears, read: systemic / pathology microscopic / brain / degeneration + systemic / clinical chemistry / alanine aminotransferase (alt/sgpt) / alanine ….
The mark [21] stands for this setting: systemic / pathology microscopic / brain / degeneration + systemic / pathology microscopic / brain / necrosis + systemic / pathology ….
[22] abbreviates: group: cholinesterase, cholinesterase / cholinesterase / cholinesterase / cholinesterase (che).
Where [23] appears, read: group: systemic, systemic / organ weight / kidney / absolute + systemic / organ weight / kidney / relative to body weight + systemic / organ weight / liver….
[24] abbreviates: systemic / pathology microscopic / kidney / cytomegaly + systemic / pathology microscopic / kidney / karyomegaly + systemic / organ weight….
[25] abbreviates: systemic / pathology microscopic / kidney / karyomegaly.
[26] abbreviates: systemic / pathology microscopic / kidney / karyomegaly + systemic / pathology microscopic / harderian gland / adenoma.
Where [27] appears, read: group: maternal, reproductive / reproductive performance / estrous cycle / abnormal.
Setting [28] is: group: systemic, systemic / organ weight / thymus / absolute + systemic / organ weight / thymus / relative to body weight.
Setting [29] is: group: developmental, developmental / developmental malformation / bone / short + developmental / developmental malformation / bone / wavy + developmental / ….
Where [30] appears, read: group: developmental, developmental / developmental malformation / bone / wavy + developmental / developmental malformation / brain / dilated cerebral ventricle….
The mark [31] stands for this setting: group: maternal, reproductive / reproductive performance / resorptions / resorptions.
Where [32] appears, read: reproductive / reproductive performance / resorptions / resorptions + systemic / in life observation / body weight / body weight gain + ….
Where [33] appears, read: systemic / in life observation / body weight / fetal weight.
Where [34] appears, read: group: systemic, systemic / organ weight / testes / absolute + systemic / organ weight / testes / relative to body weight + systemic / pathology gross / ….
The mark [35] stands for this setting: group: systemic, systemic / pathology gross / sperm measure / sperm count + systemic / pathology gross / sperm measure / sperm motility.
Setting [36] is: systemic / in life observation / clinical signs / ocular discharge + systemic / in life observation / clinical signs / aggressive behavior….
Setting [37] is: systemic / in life observation / body weight / body weight.
[38] abbreviates: systemic / in life observation / body weight / body weight + systemic / in life observation / clinical signs / [other] + systemic / in life ….
Where [39] appears, read: systemic / in life observation / food consumption / food consumption + systemic / organ weight / liver / absolute.
Setting [40] is: systemic / in life observation / body weight / body weight + systemic / in life observation / clinical signs / aggressive behavior + ….

Take `ClCC(Cl)Cl` [1,1,2-Trichloroethane]: in the series on mouse [1] (setting [18]), the LOAEL (in general, the lowest dose or exposure tested at which an adverse effect was seen) is greater than 390 mg/kg/day and the NOAEL (usually the highest dose or exposure tested at which no adverse effect was seen) was no less than 390 mg/kg/day. Besides, in the series with mouse [1] (setting [19]), the LEL turned out to be 195 mg/kg/day and the NEL is less than 195 mg/kg/day. For the same molecule, in the series on rat [2], the LEL is 46 mg/kg/day, the LOAEL is greater than 92 mg/kg/day, the NEL was less than 46 mg/kg/day and the NOAEL was no less than 92 mg/kg/day.

For the molecule `O=P(OCCCl)(OCCCl)OCCCl` [Tris(2-chloroethyl) phosphate], the NEL with rat [3] (setting [20]) is 44 mg/kg/day; with rat [4] (setting [22]) it was 88 mg/kg/day; in the series with rat [4] (setting [23]) it was 22 mg/kg/day; in the series with mouse [5] (setting [24]) it was 88 mg/kg/day; with mouse [6] (setting [26]), less than 175 mg/kg/day. Besides, the NOAEL is 44 mg/kg/day in the series on rat [3] (setting [20]); 88 mg/kg/day with rat [4] (setting [22]); 88 mg/kg/day with rat [4] (setting [23]); 350 mg/kg/day in the series on mouse [5] (setting [24]); less than 175 mg/kg/day in the series with mouse [6] (setting [25]). Also, the LEL is 88 mg/kg/day in the series with rat [3] (setting [21]); 175 mg/kg/day with rat [4] (setting [22]); 44 mg/kg/day in the series with rat [4] (setting [23]); 175 mg/kg/day in the series with mouse [5] (systemic / organ weight / liver / absolute + systemic / organ weight / liver / relative to body weight + systemic / organ weight / kidney / …); 175 mg/kg/day with mouse [6] (setting [26]). Also, the LOAEL was determined as 88 mg/kg/day in the series with rat [3] (setting [21]); 175 mg/kg/day with rat [4] (setting [22]); 175 mg/kg/day in the series with rat [4] (group: systemic, systemic / in life observation / clinical signs / hyperactivity + systemic / pathology microscopic / brain / necrosis); 700 mg/kg/day in the series with mouse [5] (systemic / pathology microscopic / kidney / cytomegaly + systemic / pathology microscopic / kidney / karyomegaly); 175 mg/kg/day with mouse [6] (setting [25]).

Consider `COCCO` [2-Methoxyethanol], for which the LEL amounted to 135 mg/kg/day in the series with rat [7] (setting [27]); 70 mg/kg/day with rat [7] (setting [28]); 1000 mg/kg/day in the series with guinea-pig; 50 ppm in the series with rat [8] (setting [30]); 50 ppm in the series with rat [8] (setting [31]); 16 mg/kg/day in the series with rat [9] (setting [33]). Moreover, the results for the LEL with mouse [10] (setting [27]) and with mouse [10] (setting [35]) were 492 mg/kg/day and 295 mg/kg/day, respectively. Moreover, the LOAEL was greater than 785 mg/kg/day with rat [7] (setting [27]); 135 mg/kg/day in the series with rat [7] (group: systemic, systemic / in life observation / body weight / body weight + systemic / pathology microscopic / spleen / fibrosis); greater than 1000 mg/kg/day with guinea-pig; greater than 200 ppm with rat [8] (setting [29]); greater than 200 ppm in the series with rat [8] (setting [31]); greater than 620 mg/kg/day with rat [9] (setting [32]). Further, the LOAEL is greater than 1840 mg/kg/day in the series with mouse [10] (setting [27]) and 529 mg/kg/day with mouse [10] (setting [34]). For the same molecule, the NEL is 70 mg/kg/day with rat [7] (setting [27]); less than 70 mg/kg/day in the series on rat [7] (setting [28]); less than 1000 mg/kg/day in the series with guinea-pig; less than 50 ppm in the series with rat [8] (setting [30]); less than 50 ppm in the series on rat [8] (setting [31]); less than 16 mg/kg/day in the series with rat [9] (setting [33]). Further, the NEL was less than 492 mg/kg/day in the series with mouse [10] (setting [27]) and less than 295 mg/kg/day in the series on mouse [10] (setting [35]). For the same molecule, the NOAEL in the series with rat [7] (setting [27]) is no less than 785 mg/kg/day; with rat [7] (group: systemic, systemic / in life observation / body weight / body weight + systemic / pathology microscopic / spleen / fibrosis + systemic / clinical …) it was 70 mg/kg/day; in the series on guinea-pig, no less than 1000 mg/kg/day; in the series with rat [8] (setting [29]), no less than 200 ppm; with rat [8] (setting [31]), no less than 200 ppm; with rat [9] (setting [32]), no less than 620 mg/kg/day. Also, the no observed adverse effect level (NOAEL) in the series with mouse [10] (setting [27]) was no less than 1840 mg/kg/day; with mouse [10] (setting [34]) it was 295 mg/kg/day.

`Oc1ccccc1Cl` [2-Chlorophenol]: in the series on rat [11], the LEL was 25 mg/kg/day, the LOAEL was greater than 25 mg/kg/day, the NEL was 2.5 mg/kg/day and the no observed adverse effect level (NOAEL) was no less than 25 mg/kg/day.

On to `C[C@](N)(Cc1ccc(O)c(O)c1)C(=O)O.C[C@](N)(Cc1ccc(O)c(O)c1)C(=O)O.O.O.O` [Methyldopa sesquihydrate], for which the LEL in the series on mouse [12] (setting [36]) amounted to 465 mg/kg/day; in the series on mouse [13] (setting [38]), 830 mg/kg/day; with rat [14] (setting [39]), 155 mg/kg/day; in the series with rat [15] (setting [40]), 110 mg/kg/day. Further, the NEL with mouse [12] (setting [36]) is less than 465 mg/kg/day; in the series on mouse [13] (setting [38]), less than 830 mg/kg/day; in the series on rat [14] (setting [39]), less than 155 mg/kg/day; with rat [15] (setting [40]) it was less than 110 mg/kg/day. For the same molecule, the LOAEL was found to be 1880 mg/kg/day in the series on mouse [12] (setting [25]), 830 mg/kg/day with mouse [13] (setting [37]), 625 mg/kg/day in the series on rat [14] (systemic / pathology microscopic / kidney / regeneration + systemic / in life observation / body weight / body weight) and 110 mg/kg/day with rat [15] (setting [37]). The NOAEL in the series on mouse [12] (systemic / pathology microscopic / kidney / karyomegaly + systemic / in life observation / body weight / body weight + systemic / in life …) was 945 mg/kg/day; with mouse [13] (setting [37]), less than 830 mg/kg/day; in the series on rat [14] (systemic / pathology microscopic / kidney / regeneration + systemic / in life observation / body weight / body weight + systemic / in life …), 315 mg/kg/day; in the series on rat [15] (setting [37]), less than 110 mg/kg/day.

With `Cc1ccc(N=CN(C)C=Nc2ccc(C)cc2C)c(C)c1` [Amitraz], in the series with mouse [16], the LEL stood at 2.31 mg/kg/day, the LOAEL was determined as 2.31 mg/kg/day, the NEL was less than 2.31 mg/kg/day and the no-observed-adverse-effect level (NOAEL) was less than 2.31 mg/kg/day. In addition, in the series on rat [17], the LEL turned out to be 3.13 mg/kg/day, the LOAEL was determined as 3.13 mg/kg/day, the NEL worked out at 0.97 mg/kg/day and the NOAEL was found to be 0.97 mg/kg/day. In the series on dog, this molecule returned an LEL of 1 mg/kg/day, an LOAEL of 1 mg/kg/day, an NEL of 0.25 mg/kg/day and an NOAEL of 0.25 mg/kg/day.

The values above are taken from EPA's ToxRefDB 2.
